Assay results: patent US20190344265A1, “Networked Cell Holder Chip” (priority 2018, published 2019)

Tested on: breast cancer cells
Experiment: Cell protrusion length of breast cancer cells in the networked cell-holder chip (time course imaging)
Assay type: cell-based
Description: To load the cells into the chip of the present invention, a medium containing suspended cells is dropped onto the surface of the well plate of a chip of the present invention via a multichannel pipette or liquid handling system. In some embodiments of the present invention, 20-ml of the medium is dropped onto a chip of the present invention having a width of 86 mm, a length of 128 mm, and height of 14 mm. The chip is loaded on one of the receptors 302 of the bucket rotor 300. The bucket rotor is spun by the centrifuge 304 to drive the cells into the microwells of the chip. […] Filter papers (e.g., manufactured by Whatman) are used to swipe away the unloaded cells. Finally, the cells are cultured at 37° C. in the chip 100 a humidified atmosphere with 5% CO2, to enable protrusions to extend in the microchannels. The cells are also stained (for example, with green fluorescent protein—GFP) to enhance visibility of the cells and protrusions. […] The loaded breast cancer cells in both chips were incubated overnight. In the chip that was to be treated with the drug, the medium was replaced by a fresh culture medium mixed with paclitaxel concentration of 0.5 μM, after the incubation period.

## CC(=O)O[C@H]1C(=O)[C@@]2(C)[C@H]([C@H](OC(=O)c3ccccc3)[C@]3(O)C[C@H](OC(=O)[C@H](O)[C@@H](NC(=O)c4ccccc4)c4ccccc4)C(C)=C1C3(C)C)[C@]1(OC(C)=O)CO[C@@H]1C[C@@H]2O [paclitaxel]
Breast cancer cells in chip, paclitaxel 0.5 μM
  time until effects of the drug on the cancer cells were clear: within one hour
Breast cancer cells incubated overnight in chip, then medium with paclitaxel 0.5 μM, sample of 51 cells (FIG. 29), untreated comparison 64 cells (FIG. 28)
  normalized length of cell protrusion over time: reduces the length of the protrusions
